In patent publication US8222004B2, “Diagnosis and treatment of autism using CD38” (National University Corporation Kanazawa University, priority 2006, dated 2012):

What was measured:
[1] = test system: pituitary nerve terminals; assay: Oxytocin release from isolated pituitary nerve terminals (in vitro); type: cell-based, mouse
Experimental: (§1) Cell bodies of hypothalamic neurons and nerve terminals were isolated according to a previously described method (OuYang, W., et al., Brain Res. 1024, 203-21.1 (2004)), then washed with a Locke solution, and homogenized in a solution containing sucrose, 270; HEPES-Tris, 10; and K-EGTA, 0.01 (in mM, pH 7.25). The homogenates were transferred to Petri dishies and left standing for 5 to 8 minutes.
Isolated cells and nerve terminals were left standing for 6 hours, and then, an experiment was started. The specimens were perfused for 45 minutes, and the perfusate was collected at last 5-minute intervals three times in total for control concentration measurement. Subsequently, the specimens were perfused for additional 5 minutes with Locke solution containing 70 mmol of KC1, and oxytocin concentrations in the obtained perfusates were determined using an oxytocin determination kit and considered as concentrations of oxytocin released by depolarization stimulation.

isolated nerve terminals = assay: Intracellular Ca2+ concentration in isolated nerve terminals (Oregon Green); type: cell-based, mouse; conditions: wild-type mice; 50 mM KCl
Experimental: as §1
The cells were incubated with Oregon Green for 1 hour to incorporate the dye into the cells. Subsequently, a fluorescence intensity of the cells was measured using an excitation wavelength of 485 nm and a filter of 538 nm. A fluorescence microspectrophotometer and a condenser with an ARGUS-50 CCD camera were used for the measurement.

[2] = test system: postpartum female CD38−/− mice; assay: Maternal behaviors of postpartum female mice (pup retrieval, crouching) after subcutaneous peptide administration; type: in vivo, mouse; conditions: once, 1 to 10 ng/kg
Experimental: Then, each mother mouse was put back at a corner of a cage, and the pups were placed at remaining 3 corners. In this state, behaviors of the mother mouse were observed. A latency to retrieve each pup and a duration of crouching over 3 pups were also measured.
According to a previously described method (Boccia, M. M., et al., Neurobiol. Learn. Memory 69, 136-146 (1998)), oxytocin (OT) or vasopressin (AVP) dissolved in 0.05 M acetic acid was adjusted to 0.01 μM with saline, and this solution was subcutaneously administered once at a dose of 1 to 10 ng/kg body weight […] to the postpartum female CD38−/− mice (N=6 to 8) described above and young male mice (N=10 per group).

[3] = test system: male CD38−/− and wild-type mice; assay: Social memory of male mice (olfactory investigation time on repeated encounters); type: in vivo, mouse; conditions: subcutaneous, once, 1 to 10 ng/kg; for social memory (olfactory investigation): young male CD38−/− mice
students = conditions: 194 students, intranasal administration, versus placebo; cited from earlier work
[4] = molecular target: ADP-ribosyl cyclase activity (Homo sapiens, UniProt P28907, R140W); conditions: mutated CD38 found in human diabetes; cited from earlier work
Chain of ADP-ribosyl cyclase activity (P28907 whole entry R140W): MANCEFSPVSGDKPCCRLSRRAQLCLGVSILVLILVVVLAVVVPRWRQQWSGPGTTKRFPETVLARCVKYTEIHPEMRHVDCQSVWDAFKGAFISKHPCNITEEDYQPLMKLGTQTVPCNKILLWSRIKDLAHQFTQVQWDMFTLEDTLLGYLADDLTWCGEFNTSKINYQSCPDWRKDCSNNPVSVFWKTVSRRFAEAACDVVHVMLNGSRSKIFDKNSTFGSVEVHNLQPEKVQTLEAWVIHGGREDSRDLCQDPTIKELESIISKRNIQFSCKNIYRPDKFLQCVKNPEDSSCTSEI

Compound: 8-bromo-cADPR
- oxytocin release from the pituitary nerve terminals ([1]; wild-type mice, 100 μM, high-potassium depolarization): decreased to same levels as those in the CD38−/− mice
- increase in intracellular Ca2+ concentration (isolated nerve terminals): significantly inhibited

Compound: Nc1ncnc2c1ncn2[C@@H]1O[C@H](COP(=O)(O)OP(=O)(O)OCC2OC([n+]3cccc(C(=O)[O-])c3)C(O)C2O)[C@@H](O)[C@H]1OP(=O)(O)O (stereo in doubt) [NAADP, nicotinate adenine dinucleotide phosphate]
- oxytocin release from the pituitary nerve terminals ([1]; all the mice, initially stimulated with Ca2+, 100 nM given outside the cells): promoted

Compound: CO/C1=C\C(C)=C\[C@@H](C)[C@@H](O)[C@@H](C)C/C(C)=C/C=C/[C@H](OC)[C@@H]([C@@H](C)[C@@H](O)[C@H](C)[C@@]2(O)C[C@@H](O)[C@H](C)[C@@H](C(C)C)O2)OC1=O [bafilomycin]
- oxytocin release from the pituitary nerve terminals ([1]; wild-type mice, 2 μM, high-potassium depolarization): decreased to same levels as those in the CD38−/− mice

Compound: N=c1c2ncn3c2ncn1[C@@H]1O[C@H](COP(=O)(O)OP(=O)(O)OC[C@H]2O[C@@H]3[C@H](O)[C@@H]2O)[C@@H](O)[C@H]1O [cADPR, cyclic ADP-ribose]
- increase of oxytocin release ([1]; CD38−/− mice, pituitary nerve terminals, 10 μM): 2.5 fold
- oxytocin release from the pituitary nerve terminals ([1]; all the mice, initially stimulated with Ca2+, 10 μM given outside the cells): promoted

Compound: CC[C@H](C)[C@@H]1NC(=O)[C@H](Cc2ccc(O)cc2)NC(=O)[C@@H](N)CSSC[C@@H](C(=O)N2CCC[C@H]2C(=O)N[C@@H](CC(C)C)C(=O)NCC(N)=O)NC(=O)[C@H](CC(N)=O)NC(=O)[C@H](CCC(N)=O)NC1=O [oxytocin]
- maternal behaviors (latency to retrieve pups, duration of crouching) [2]: recovered to same levels of maternal behaviors as those of the wild-type mice
- change in behaviors of wild-type mice [3]: no change
- social memory (olfactory investigation) [3]: recovered a social memory
- investment in an investment game (trust, prosocial behavior) (students): invested more money and more frequently invested a maximum allowable than the placebo group

Compound: NC(=O)CC[C@@H]1NC(=O)[C@H](Cc2ccccc2)NC(=O)[C@H](Cc2ccc(O)cc2)NC(=O)[C@@H](N)CSSC[C@@H](C(=O)N2CCC[C@H]2C(=O)N[C@@H](CCCN=C(N)N)C(=O)NCC(N)=O)NC(=O)[C@H](CC(N)=O)NC1=O [vasopressin]
- change in behaviors of wild-type mice [3]: no change
- social memory (olfactory investigation) [3]: no detectable change

Compound: mutated CD38: human CD38 with substitution of tryptophan for arginine at position 140, found in human diabetes
- ADP-ribosyl cyclase activity relative to normal [4]: about ⅓

Compound: ryanodine
- oxytocin release from the pituitary nerve terminals ([1]; wild-type mice, 200 μM, high-potassium depolarization): decreased to same levels as those in the CD38−/− mice
- increase in intracellular Ca2+ concentration (isolated nerve terminals): significantly inhibited
